The results in this text go back to patent US11247001B2, “Delivery device with cantilever structure and associated method of use” (De Motu Cordis Pty Ltd, priority 2016, dated 2022).

The data set is described as follows: Particle deagglomeration: particle size distribution of the dose of dry powder emitted by the delivery device. Format: physicochemical. The note with it: for emitted dose: dry powder emitted from delivery device comprising a container for storing dry powder (FIG. 28, FIG. 29); for deagglomerated to the typical inhalable range: share of dry powder, delivery device with container. The text has this: The performance of the delivery device can be measured by how closely the particle size distribution of the emitted powder approaches the original distribution.
An embodiment of the device that stored Mannitol on a corrugated reed was also compared to the embodiment of the device that stored and dispensed Mannitol from a blister.

Take `OC[C@@H](O)[C@@H](O)[C@H](O)[C@H](O)CO` [Mannitol]: the emitted dose is reported as 75.3-86.1% and the “deagglomerated to the typical inhalable range” value was “About 50%”. The “Fine Particle Fraction < 5 um (%)” value (Table 2, performance of device, N = 8, 68% CI) is reported as 48.0-60.9%. Further, the FPF result (device that dispensed from a blister) is on record as “about 43%”. The FPF result (device that dispensed from the reed (corrugated reed)) was “about 44%”. Besides, the FPF entry (device with a reed) is reported as “about 43%”. Also, the “Fine Particle Fraction < 5 um (%)” value (device with reed, N = 10, 68% CI) was 38.9-47.4%. Further, under “device without a reed”, the FPF result is recorded as “about 31%”. In addition, the “Fine Particle Fraction < 5 um (%)” value (device without reed, same flow conditions, N = 10, 68% CI) is given as 26.8-35.1%. For the same compound, for the setting “powder stored in and dispensed from blister, N = 10, 68% CI”, the “Fine Particle Fraction < 5 um (%)” value was 38.9-47.4%. The “Fine Particle Fraction < 5 um (%)” value (powder stored in and dispensed from corrugated reed, N = 5, 68% CI) is on record as 40.6-48.2%.

Take `CNCC(O)c1ccc(O)c(O)c1` (stereo not shown) [Adrenaline]: the emitted dose is recorded as 72.4-92.0% and the “deagglomerated to the typical inhalable range” value is on record as “about 35%”.
